In patent US5378813A, “Meso-2,5-dimercapto-N,N,N'N'-tetramethyladipamide” (President and Fellows of Harvard College, priority 1992, dated 1995):
≈ marks a conversion by molar mass, not a printed value. Where two headings read alike, the source gives them in different places.

Legend:
DNase = biological target: T1, DNase (Bos taurus, UniProt P00639); assay: Rate of reduction (deactivation) of DNase; type: biochemical; design: kapp^DTA: unit not given here
T1 construct: purchased Sigma
Source text: (§1) In papain and creatine kinase, the disulfide being reduced is derived from an essential active site cysteine, (Smith et al., Biochemistry 1975, 14, 766-771) and the rate measured is the rate of reactivation of the modified protein. (Shaked et al., Biochemistry 1980, 19, 4156-4166.) DNase is deactivated by the reduction of an internal disulfide. (Shaked et al., Biochemistry 1980, 19, 4156-4166; and Price et al., J. Biol. Chem. 1969, 244, 929-932.)

[1] = Reduction potential and equilibrium constant for reduction of ME^ox by the dithiol; type: physicochemical; conditions: for K, equilibrium constant: reduction of ME^ox with the dithiol in water, pH 7.0, 100 mM phosphate buffer; for ε° (reduction potential): relative to mercaptoethanol (-0.209 V)
Procedure: We used the equilibrium constant between meso-DTA and DTT to determine the values of ε° and K(ME) of meso-DTA.
(§2) After 4 h, a ^1 H NMR spectrum was obtained.

[2] = Determination of pKa (absorbance at 238 nm against pH); type: physicochemical; conditions: for fraction existing as the thiolate: pH 7.0; for pKa: aqueous buffers
Procedure: The absorbance at 238 nm of meso-DTA (100 μL of an 8 mM ethanolic solution of meso-DTA) in various aqueous buffers (3 mL, 50 mM: 2,2-dimethylsuccinate, pH 6.0, 6.4, 6.8; Tris, pH 7.0, 7.3, 7.7, 8.0, 8.3, 8.7; glycine, pH 9.0, 9.5, 10.0) was plotted against pH. This curve was then compared with plots derived from theory.

[3] = Solubility in phosphate buffer; type: physicochemical; conditions: reduced (dithiol) form, phosphate buffer pH 7.0, 100 mM phosphate, 25° C
Procedure: ^e The solubilities were determined in phosphate buffer (pH 7.0, 100

[4] = Equilibration of dl-DTA and meso-DTA (1H NMR); type: physicochemical; conditions: 100 mM phosphate buffer, pD 7.0
Procedure: dl-DTA^OX (2 mg in 0.5 mL of buffered D2 O (100 mM NaPO4, pD 7.0)) and meso-DTA (6 mg in 1.5 mL of buffered D2 O (100 mM NaPO4, pD 7.0)) were mixed in an NMR tube, and ^1 H NMR spectra were taken at various times. The value of Keq was calculated from the ^1 H NMR integrals.

[5] = Kinetics of reduction of mercaptoethanol disulfide by 1H NMR spectroscopy; type: physicochemical; design: kapp^DTA / kapp, apparent rate constant: unit not given here; conditions: for kapp, apparent rate constant: reduction of mercaptoethanol disulfide (ME^ox), pH 7.0, aqueous phosphate buffer (50 mM)
Procedure: (§3) The thiol-disulfide interchange reaction was quenched by addition of 25 μL of a DCl solution (12 wt % in D2 O) in one tube after 2 min, in another tube after 4 min, and in another tube after 6 min. The same series of experiments was carried out with the meso-DTA solution instead of the DTT solution. The second-order rate constant was calculated from the integrals of the ^1 H NMR spectra.

[6] = reference value to which all ε° are relative; cited from earlier work
[7] = Kinetics of reduction of glutathione disulfide by 1H NMR spectroscopy; type: physicochemical; design: kapp^DTA: unit not given here; conditions: pH 7.0, 298 K
Procedure: as §3

papain-S-S-Me = biological target: T2, papain-S-S-Me (Carica papaya, UniProt P00784); assay: Kinetics of reactivation of papain-S-S-Me; type: biochemical; design: kapp^DTA: unit not given here
T2 construct: purchased Boehringer Mannheim
T2 sequence (P00784 134-345): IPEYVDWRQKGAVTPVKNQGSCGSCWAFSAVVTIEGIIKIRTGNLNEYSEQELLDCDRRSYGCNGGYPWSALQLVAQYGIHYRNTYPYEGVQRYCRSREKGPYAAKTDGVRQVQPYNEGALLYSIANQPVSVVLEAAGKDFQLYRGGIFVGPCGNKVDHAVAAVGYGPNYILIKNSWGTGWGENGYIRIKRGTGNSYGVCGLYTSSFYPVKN
Procedure: as §1
The papain-S-S-Me was prepared as described by Shaked et al., Biochemistry 1980, 19, 4156-4166. […] Chem. 1991, 56, 2332-2337.

[8] = biological target: T3, creatine kinase-S-S-glutathione (Oryctolagus cuniculus, UniProt P00563); assay: Kinetics of reactivation of creatine kinase-S-S-glutathione; type: biochemical; design: kapp^DTA: unit not given here
T3 construct: purchased Sigma
Source text: as §1
The solution of creatine kinase S-S-glutathione (the procedure was analogous to that of Walters and Gilbert, J. Biol. Chem. 1986, 261, 15372-15377) (10 μL) was diluted with deoxygenated aqueous buffer (pH 7.0, 0.1M imidazole, 2 mM EDTA, 2.5 mL). The diluted solution was added to two flasks (1.0 mL each). […] At various times, a 50-μL aliquot was withdrawn and added to an assay solution (950 μL, pH 6.0, 0.1M imidazole, 2 mM EDTA, 10 mM MgCl2, 2 mM ADP, 20 mM d-glucose, 2 mM NADP, 30 mM phosphocreatine, hexokinase (50 units/mL), glucose-6-phosphate dehydrogenase (35 units/mL)). The rate of increase in absorbance at 340 nm was recorded. (Gerhardt, Methods of Enzymatic Analysis, 3rd ed.; Bergmeyer, Ed.; Verlag Chemie: Weinheim, 1983; Vol. III, pp. 508-524.)

[9] = Equilibrium experiment, meso-DTA with DTT^OX (1H NMR); type: physicochemical; conditions: 50 mM phosphate buffer, pD 7.0
Procedure: as §2

[10] = Relative rate of reduction of disulfides, meso-DTA compared with DTT (summary and calculation); type: physicochemical; conditions: pH 7.0
Source text: as §1
The difference between the calculated and the actual value for proteins could be due to steric interactions, because meso-DTA is a secondary thiol and DTT is a primary thiol. The difference in rates could also be due to the relative difference in hydrophobicities of the two compounds.

[11] = reduction of an internal disulfide, aqueous solution, pH 7.0, 298 K
[12] = aqueous buffer, read-out: solubility
[13] = DMH data from Singh and Whitesides 1991
[14] = rate of reactivation, aqueous solution, pH 7.0, 298 K

T3 sequence (P00563 2-381 limits assumed): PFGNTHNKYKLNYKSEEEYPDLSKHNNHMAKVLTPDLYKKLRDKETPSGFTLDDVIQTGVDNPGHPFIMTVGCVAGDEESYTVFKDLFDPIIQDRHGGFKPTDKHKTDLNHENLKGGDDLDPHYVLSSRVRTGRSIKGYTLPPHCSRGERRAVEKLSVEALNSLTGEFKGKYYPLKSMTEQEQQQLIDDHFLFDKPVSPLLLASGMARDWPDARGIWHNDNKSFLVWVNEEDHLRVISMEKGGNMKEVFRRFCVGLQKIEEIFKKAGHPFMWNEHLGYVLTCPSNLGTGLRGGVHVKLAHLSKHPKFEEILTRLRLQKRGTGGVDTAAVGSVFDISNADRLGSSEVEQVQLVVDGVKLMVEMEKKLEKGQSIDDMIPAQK
T1 sequence (P00639 23-282): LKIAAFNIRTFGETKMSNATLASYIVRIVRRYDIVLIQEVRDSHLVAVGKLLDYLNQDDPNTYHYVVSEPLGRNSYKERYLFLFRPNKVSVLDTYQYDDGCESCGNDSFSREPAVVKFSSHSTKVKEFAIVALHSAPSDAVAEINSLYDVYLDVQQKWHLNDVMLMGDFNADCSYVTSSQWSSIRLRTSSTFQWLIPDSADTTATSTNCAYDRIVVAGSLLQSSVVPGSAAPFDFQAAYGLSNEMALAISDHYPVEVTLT

For `O[C@H](CS)[C@H](O)CS` (racemic) [DTT, dithiothreitol, reference compound], the “kapp^DTT” value (DNase; [11]) was 0.19 M^1 g^-1, the “K, equilibrium constant” value [1] was 10^5 M and the “ε° (reduction potential)” value [1] was -0.356 V. For the same compound, the “fraction existing as the thiolate” value [2] was “about 1%” and the solubility [3] was “high”.

In the case of `CN(C)C(=O)[C@H](S)CC[C@@H](S)C(=O)N(C)C` (relative stereo) [dl-DTA], the “factor by which more reducing than meso-DTA” value [4] is reported as 10, the “K, equilibrium constant” value [1] is reported as 10^4 M and the “ε° (reduction potential)” value [1] is reported as -0.328 V.

With `CN(C(=O)CS)N(C)C(=O)CS` [DMH, N,N'-dimethyl-N,N'-bis(mercaptoacetyl) hydrazine, reference compound] the “kapp, apparent rate constant” value [5] was 0.52, the “K, equilibrium constant” value [1] was 10^3 M and the “ε° (reduction potential)” value [1] was -0.300 V. For the same compound, the pKa ([2]; read-out: pKa (first thiol)) was 7.6, the pKa ([2]; read-out: pKa (second thiol)) was 8.9 and the solubility [3, 12] was 250 mM (≈ 52.1 mg/mL).

For `OCCS` [ME, Mercaptoethanol], the “ε° of the reference mercaptoethanol” value [6] is listed as -0.209 V.

In the case of `CN(C)C(=O)[C@H](S)CC[C@H](S)C(=O)N(C)C` [meso-DTA, meso-2,5-Dimercapto-N,N,N',N'-tetramethyladipamide], the “kapp^DTA / kapp^DTT” value ([5]; mercaptoethanol disulfide, pH 7.0, 298 K) is reported as 7.7, the “kapp^DTA / kapp^DMH” value ([5]; mercaptoethanol disulfide, DMH data from Singh and Whitesides 1991) is reported as 1.1 and the “kapp, apparent rate constant” value [5] is reported as 0.50. For the same compound, the “kapp^DTA” value ([5]; reduction of mercaptoethanol disulfide, aqueous solution, pH 7.0, 298 K) was 0.50, the “kapp^DTA / kapp^DTT” value ([7]; glutathione disulfide) was 5.5 and the “kapp^DTA” value ([7]; reduction of glutathione disulfide, aqueous solution) was 0.31. For the same compound, the “kapp^DTA / kapp^DMH” value (papain-S-S-Me; [13]) was 0.15, the “kapp^DTA / kapp^DTT” value (papain-S-S-Me; pH 7.0, 298 K) was 4.5 and the “kapp^DTA” value (papain-S-S-Me; [14]) was 260. The “kapp^DTA / kapp^DMH” value [8, 13] was 0.5, the “kapp^DTA / kapp^DTT” value ([8]; pH 7.0, 298 K) was 3.4 and the “kapp^DTA” value [8, 14] was 78. The “kapp^DTA / kapp^DMH” value (DNase; [13]) was 0.4, the “kapp^DTA / kapp^DTT” value (DNase; pH 7.0, 298 K) was 1.8 and the “kapp^DTA” value (DNase; [11]) was 0.34. For the same compound, the “Keq = [meso-DTA^OX][DTT]/[meso-DTA][DTT^OX]” value [9] was 0.010, the “Keq = [meso-DTA^OX][dl-DTA]/[meso-DTA][dl-DTA^OX]” value [4] was 0.10 and the “factor by which the equilibrium constant for reduction of ME^OX is less than that of DTT” value [1] was 10^2. The “less reducing than DTT by” value [1] was “approximately 56 mV”, the “K, equilibrium constant” value [1] was 10^3 M and the “ε° (reduction potential)” value [1] was -0.300 V. The pKa ([2]; read-out: pKa (first thiol)) was 7.8 ± 0.2, the pKa ([2]; read-out: pKa (second thiol)) was 8.9 ± 0.2 and the “fraction existing as the thiolate” value [2] was “approximately 15%”. For the same compound, the solubility [3, 12] was 80 mM (≈ 21.2 mg/mL), the “times faster reduction of disulfide bonds than DTT” value ([10]; aqueous solution) was “up to 8 times” and the “relative rate of reduction compared with DTT, disulfide bond in proteins” value ([10]; water) was 2-5 times.
